Experimental findings from patent US11628198B2, “Methods for prevention and treatment of acute renal injury” (Cornell University, priority 2008, dated 2023) are described below.

Marks after values point to notes of the source that are not given here.

Common to all, as to assay type: in vivo, rat
Test [1] relates to ARI caused by ischemia-reperfusion (I/R). The test is described as follows: I/R model of ARI: BUN and serum creatinine. To be noted: 45 min ischemia and 24 h reperfusion; 3 mg/kg 30 min before ischemia and before reperfusion. The protocol:
Sprague Dawley rats (250˜300 g) were assigned to four groups: (1) sham surgery group without I/R; (2) I/R+saline vehicle treatment; (3) I/R+SS-20 treatment; (4) I/R+SS-31 treatment. Each experimental group consisted of 8 rats. SS-20 and SS-31 (3 mg/kg, dissolved in saline) were administered to rats 30 min before ischemia and immediately before onset of reperfusion. The control rats were given saline alone on the same schedule.
Rats were anesthetized with a mixture of ketamine (90 mg/kg, i.p.) and xylazine (4 mg/kg, i.p.). The left renal vascular pedicle was occluded temporarily using a micro-clamp for 30 or 45 min. At the end of the ischemic period, reperfusion was established by removing of the clamp. At that time, the contralateral right kidney was removed. After 24 h reperfusion, animals were sacrificed and blood samples were obtained by cardiac puncture. Renal function was determined by blood urea nitrogen (BUN) and serum creatinine (BioAssay Systems DIUR-500 and DICT-500).
BUN and serum creatinine were assayed using kits from BioAssay Systems (DIUR-500 and DICT-500). […] The # indicates p<0.05 from the IR=saline group.

Test [2] deals with ARI caused by ureteral obstruction (UUO). The test is described as follows: 14-day UUO model: renal histology (trichrome, interstitial volume). To be noted: obstructed kidney. Here is the method: Sprague-Dawley rats underwent unilateral ureteral ligation (UUO) with 4-0 silk suture through a midline abdominal incision under sterile conditions. Ureteral obstruction was carried out by ligating the left ureter at the end of lower ureter, just above the ureterovesical junction.
SS-31 (1 mg/kg or 3 mg/kg; n=8) was administered intraperitoneally, one day prior to UUO and continuing for 14 days. A separate group of animals was given saline, as a vehicle control (n=16).
Renal Histology: Trichrome sections of paraffin embedded specimens were examined by a board-certified pathologist (SVS, renal pathology specialist), and fibrosis scored on a scale of 0-+++.

Test [3] relates to contrast induced nephropathy in diabetic animal model. In words: CIN in diabetic (HFD/STZ) rats with iohexol, Experiment 1. Here is the method:
Animal model: Impaired renal function caused by diabetes is one of the major predisposing factors for contrast induced nephropathy (McCullough, P et al., J. Am. College of Cardiology, 2008, 51, 1419-1428). In this experiment, a total of 57 SD rats were fed with high fat diet for 6 weeks, followed by the injection with low dose streptozotocin (30 mg/kg). After 9 more weeks, the blood glucose, scrum creatinine and Cystatin C was measured. Based on the following selection criteria: Scr>250 μM, Cystatin C>750 ng/ml and blood glucose>=[…], 20 rats were selected to proceed with the contrast induced nephropathy study.
The animals were divided into 2 groups. Group 1 rats were fed administered iohexol and SS-31; Group 2 rats were administered iohexol and a control vehicle. On day 1, serum samples were collected from the rats in each group and total protein in urine was measured using a Bradford assay. On days 2 and 3, 3 mg/kg SS-31 (Group 1) or a vehicle (Group 2) was administered s.c. 30 min prior to the dye injection (6 mL/kg i.v. tail vein). SS-31 (Group 1) or PBS (Group 2) administration was repeated at both 2 h and 24 h post-dye administration. Serum and urine samples were collected at days 4 and 5. The rats were euthaniszed on day 5 to harvest kidneys and vital organs. Samples were analyzed by students t-test and differences were considered significant at p<0.05.
Renal function: Renal function was assessed by determining serum and urinary creatinine using Jiancheng Cr kit (Nanjing, P.R.C) at baseline, 48 h and 72 h following dye administration. The creatinine clearance was calculated based on the Scr, Ucr and Urinary volume. Urinary protein concentration was determined by Bradford Protein Assay kit (Sigma, St. Louis, Mo.). The Cystatin C was measured Westang Rat Cystatin C kit (Shanghai, P.R.C.)

D-Arg-2′6′Dmt-Lys-Phe-NH2 [SS-31]: in test [1], the BUN was 113.8 ± 11.4# mg/dl and the “serum creatinine” value is recorded as 1.05 ± 0.16# mg/dl. Moreover, in test [2], the “trichrome staining (fibrosis), cortex” value is recorded as 0-trace and the “trichrome staining (fibrosis), medulla” value was “tr− 1+”. The substance further gave a medullary interstitial volume in test [2] (1 mg/kg i.p. daily) of 54.9±2.3%. Also, the medullary interstitial volume entry in test [2] (higher dose) was “also effective”. For the same substance, in test [3] (Baseline), the “Cystatin C” value turned out to be 708.6 ± 51.3 ng/mL, the GFR is on record as 140.0 ± 11.1 μl/min/100 g, the Scr turned out to be 305.7 ± 15.1 µmol/L and the U protein is 4.83 ± 1.03 mg/4 h. Also, in test [3] (Baseline), the U vol is 15.4 ± 2.6 mL and the Ucr worked out at 3187.0 ± 196.9 µmol/L. Besides, in test [3] (T1 (48 h post dye)), the “Cystatin C” value was 1008.1 ± 46.4 ng/mL, the GFR came out at 149.3 ± 15.6 μl/min/100 g, the Scr was found to be 285.4 ± 12.0 µmol/L and the U protein worked out at 4.71 ± 0.60 mg/4 h. In test [3] (T1 (48 h post dye)), this substance displayed a U vol of 17.4 ± 1.6 mL and a Ucr of 2816 ± 163.6 µmol/L. In addition, in test [3] (T2 (72 h post dye)), the “Cystatin C” value is 1303.6 ± 147.1 ng/mL, the GFR came out at 162.7 ± 18.7 μl/min/100 g, the Scr came to 295.7 ± 20.6 µmol/L and the U protein stood at 3.59 ± 1.0 mg/4 h. Also, in test [3] (T2 (72 h post dye)), the U vol was 20.5 ± 2.3 mL and the Ucr turned out to be 2675.4 ± 100.8 µmol/L.
